The text below walks through data of patent publication US20260034113A1, “THIADIAZOLONE DERIVATIVES, COMPOSITIONS AND USES THEREOF” (Danatlas Pharmaceuticals Co., Ltd., priority 2023, published 2026).

Molecules are shown by their SMILES. pIC50: −log10 of the molar value. A value given as a limit tells only on which side of the number the result lay.

The target in one experiment is PolQ (1-899) (Homo sapiens (Human), UniProt O75417). Nature of the experiment: PolQ ATPase assay (ADP-Glo).
PolQ (1-899), sequence (O75417 1-899): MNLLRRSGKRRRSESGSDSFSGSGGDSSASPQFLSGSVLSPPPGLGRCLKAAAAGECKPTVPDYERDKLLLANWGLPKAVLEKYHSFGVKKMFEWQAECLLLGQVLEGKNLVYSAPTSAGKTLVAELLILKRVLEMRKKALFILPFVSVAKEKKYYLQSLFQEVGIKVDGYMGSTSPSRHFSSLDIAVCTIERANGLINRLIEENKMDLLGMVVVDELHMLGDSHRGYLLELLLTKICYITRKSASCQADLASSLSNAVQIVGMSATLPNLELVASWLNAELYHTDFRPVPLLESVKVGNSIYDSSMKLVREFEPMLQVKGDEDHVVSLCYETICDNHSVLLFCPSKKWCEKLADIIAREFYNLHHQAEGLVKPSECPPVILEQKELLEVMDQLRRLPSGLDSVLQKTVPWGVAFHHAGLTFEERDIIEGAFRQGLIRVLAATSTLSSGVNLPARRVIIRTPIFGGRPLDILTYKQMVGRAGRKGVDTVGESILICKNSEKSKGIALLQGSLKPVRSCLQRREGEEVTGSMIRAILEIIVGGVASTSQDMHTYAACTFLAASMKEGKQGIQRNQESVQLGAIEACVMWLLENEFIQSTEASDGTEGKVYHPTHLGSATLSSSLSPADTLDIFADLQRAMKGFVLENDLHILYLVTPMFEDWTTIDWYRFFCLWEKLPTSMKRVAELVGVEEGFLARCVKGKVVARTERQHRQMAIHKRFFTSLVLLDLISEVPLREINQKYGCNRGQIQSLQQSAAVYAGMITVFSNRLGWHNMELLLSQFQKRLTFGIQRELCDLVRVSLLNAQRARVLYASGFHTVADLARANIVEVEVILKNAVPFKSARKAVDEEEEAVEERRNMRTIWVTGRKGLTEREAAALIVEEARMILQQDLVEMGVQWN
Conditions: not given
Format: biochemical. The protocol: The ability of the compounds of the present disclosure to inhibit ATPase activity of PolQ (1-899) was determined using the assay described below.
PolQ ATPase activity was determined by ADP-Glo assay. 10-point dilution series of compounds were used in a 384 well format for the inhibition assays. PolQ (1-899) (1 nM) in assay buffer (20 mM Tris HCl (pH 8.0), 80 mM KCl, 10 mM MgCl2, 1 mM DTT, 0.01% BSA, 0.01% Tween, 5% glycerol) was transferred to the test wells (20 uL), except the low control wells (20 μL of assay buffer was added to the low control wells). The plate was then incubated at room temperature for 30 min. An equal volume (20 μL) of 100 μM ATP, 150 nM ssDNA containing 50 thymine bases in assay buffer was added to all the test wells. The plates were covered and left to incubate for 60 min. at room temperature before the addition of the ADP Glo detection reagents. After 60 min. incubation, transfer 5 μL reaction mix to another 384-well plate and add 5 μL ADP Glo and plates incubated for 60 min. before addition of 10 μL kinase detection reagent. After the addition of the kinase detection reagent, the plates were covered and incubated for 60 min. and read luminescence on Envision
Percent inhibition was calculated as follows:
[formula] • where “Max” is the high control (DMSO) and “Min” is the no enzyme control.
IC50 values were calculated using a four-parameter logistic curve fit using the following formula: […]
IC50 values were determined by fitting the data to the standard 4 parameters with Hill Slope using GraphPad Prism software.
For orientation: ADP-Glo first removes unused ATP, then detects ADP through luciferase.
Turning to `COc1ccc(Cl)c(F)c1-c1cc(C)ncc1C(=O)Nc1nn(CC(=O)N2CC[C@@H](N(C)C)C2)c(=O)s1` [Example 9, 4-(3-Chloro-2-fluoro-6-methoxyphenyl)-N-(4-(2-((R)-3-(dimethylamino)pyrrolidin-1-yl)-2-oxoethyl)-5-oxo-4,5-dihydro-1,3,4-thiadiazol-2-yl)-6-methylnicotinamide], the pIC50 – broadly, −log10 of the IC50, conventionally taken in molar units – was 7.00 to 8.00.
With `COc1ccc(Cl)c(F)c1-c1cc(C)ncc1C(=O)Nc1nn(CC(=O)N2CC[C@H](N(C)C)C2)c(=O)s1` [Example 10, 4-(3-Chloro-2-fluoro-6-methoxyphenyl)-N-(4-(2-((S)-3-(dimethylamino)pyrrolidin-1-yl)-2-oxoethyl)-5-oxo-4,5-dihydro-1,3,4-thiadiazol-2-yl)-6-methylnicotinamide], the pIC50 was 7.00 to 8.00.
In the case of `COc1ccccc1-c1cc(C)ncc1C(=O)Nc1nn(CCCCO)c(=O)s1` [Example 24, N-(4-(4-Hydroxybutyl)-5-oxo-4,5-dihydro-1,3,4-thiadiazol-2-yl)-4-(2-methoxyphenyl)-6-methylnicotinamide], the pIC50 was 7.00 to 8.00.
Regarding `COc1cnc(Cl)cc1-c1cc(C)ncc1C(=O)Nc1nn(CCCCO)c(=O)s1` [Example 29, 2′-Chloro-N-(4-(4-hydroxybutyl)-5-oxo-4,5-dihydro-1,3,4-thiadiazol-2-yl)-5′-methoxy-6-methyl-[4,4′-bipyridine]-3-carboxamide], the pIC50 was 7.00 to 8.00.

The same experiment, now with this note: inhibition of ATPase activity of PolQ (1-899), 1 nM enzyme, 100 μM ATP, 150 nM ssDNA, ADP-Glo.
For the compound `COCCn1nc(NC(=O)c2cnc(C)cc2-c2c(OC)ccc(Cl)c2F)sc1=O` [Example 1, 4-(3-Chloro-2-fluoro-6-methoxyphenyl)-N-(4-(2-methoxyethyl)-5-oxo-4,5-dihydro-1,3,4-thiadiazol-2-yl)-6-methylnicotinamide], the pIC50 is greater than 8.00.
`COc1ccc(Cl)c(F)c1-c1cc(C)ncc1C(=O)Nc1nn(CC(F)(F)F)c(=O)s1` [Example 2, 4-(3-Chloro-2-fluoro-6-methoxyphenyl)-6-methyl-N-(5-oxo-4-(2,2,2-trifluoroethyl)-4,5-dihydro-1,3,4-thiadiazol-2-yl)nicotinamide]: the pIC50 was greater than 8.00.
For the compound `CCn1nc(NC(=O)c2cnc(C)cc2-c2c(OC)ccc(Cl)c2F)sc1=O` [Example 3, 4-(3-Chloro-2-fluoro-6-methoxyphenyl)-N-(4-ethyl-5-oxo-4,5-dihydro-1,3,4-thiadiazol-2-yl)-6-methylnicotinamide], the pIC50 was greater than 8.00.
The compound `COCCCn1nc(NC(=O)c2cnc(C)cc2-c2c(OC)ccc(Cl)c2F)sc1=O` [Example 4, 4-(3-Chloro-2-fluoro-6-methoxyphenyl)-N-(4-(3-methoxypropyl)-5-oxo-4,5-dihydro-1,3,4-thiadiazol-2-yl)-6-methylnicotinamide] gave a pIC50 greater than 8.00.
Same read-out and setting: for `COCCCCn1nc(NC(=O)c2cnc(C)cc2-c2c(OC)ccc(Cl)c2F)sc1=O` [Example 5, 4-(3-Chloro-2-fluoro-6-methoxyphenyl)-N-(4-(4-methoxybutyl)-5-oxo-4,5-dihydro-1,3,4-thiadiazol-2-yl)-6-methylnicotinamide] the value was greater than 8.00; for `COc1ccc(Cl)c(F)c1-c1cc(C)ncc1C(=O)Nc1nn(CCO)c(=O)s1` [Example 6, 4-(3-Chloro-2-fluoro-6-methoxyphenyl)-N-(4-(2-hydroxyethyl)-5-oxo-4,5-dihydro-1,3,4-thiadiazol-2-yl)-6-methylnicotinamide], greater than 8.00.
As for `COc1ccc(Cl)c(F)c1-c1cc(C)ncc1C(=O)Nc1nn(CCCO)c(=O)s1` [Example 7, 4-(3-Chloro-2-fluoro-6-methoxyphenyl)-N-(4-(3-hydroxypropyl)-5-oxo-4,5-dihydro-1,3,4-thiadiazol-2-yl)-6-methylnicotinamide], the pIC50 is greater than 8.00.
`COc1ccc(Cl)c(F)c1-c1cc(C)ncc1C(=O)Nc1nn(CC(=O)O)c(=O)s1` [Example 8, 2-(5-(4-(3-Chloro-2-fluoro-6-methoxyphenyl)-6-methylnicotinamido)-2-oxo-1,3,4-thiadiazol-3(2H)-yl)acetic acid] had a pIC50 greater than 8.00.
In turn, `COc1ccc(Cl)c(F)c1-c1cc(C)ncc1C(=O)Nc1nn(CCC#N)c(=O)s1` [Example 11, 4-(3-Chloro-2-fluoro-6-methoxyphenyl)-N-(4-(2-cyanoethyl)-5-oxo-4,5-dihydro-1,3,4-thiadiazol-2-yl)-6-methylnicotinamide] had a pIC50 greater than 8.00.
Take `COc1ccc(Cl)c(F)c1-c1cc(C)ncc1C(=O)Nc1nn(CCCC#N)c(=O)s1` [Example 12, 4-(3-Chloro-2-fluoro-6-methoxyphenyl)-N-(4-(3-cyanopropyl)-5-oxo-4,5-dihydro-1,3,4-thiadiazol-2-yl)-6-methylnicotinamide]: the pIC50 was greater than 8.00.
In turn, `COc1ccc(C(F)(F)F)c(F)c1-c1cc(C)ncc1C(=O)Nc1nn(CCCO)c(=O)s1` [Example 13, 4-(2-Fluoro-6-methoxy-3-(trifluoromethyl)phenyl)-N-(4-(3-hydroxypropyl)-5-oxo-4,5-dihydro-1,3,4-thiadiazol-2-yl)-6-methylnicotinamide] had a pIC50 greater than 8.00.
`COc1ccc(Cl)c(F)c1-c1cc(C)ncc1C(=O)Nc1nn(CCCCO)c(=O)s1` [Example 14, 4-(3-Chloro-2-fluoro-6-methoxyphenyl)-N-(4-(4-hydroxybutyl)-5-oxo-4,5-dihydro-1,3,4-thiadiazol-2-yl)-6-methylnicotinamide]: the pIC50 was greater than 8.00.
Still for that read-out and setting: to `COc1ccc(Cl)c(F)c1-c1cc(C)ncc1C(=O)Nc1nn(CCC(C)(C)O)c(=O)s1` [Example 15, 4-(3-Chloro-2-fluoro-6-methoxyphenyl)-N-(4-(3-hydroxy-3-methylbutyl)-5-oxo-4,5-dihydro-1,3,4-thiadiazol-2-yl)-6-methylnicotinamide] belongs greater than 8.00.
Still for that read-out and setting: to `COc1ccc(Cl)c(F)c1-c1cc(C)ncc1C(=O)Nc1nn(CCC(C)O)c(=O)s1` (stereo not drawn) [Example 16, 4-(3-Chloro-2-fluoro-6-methoxyphenyl)-N-(4-(3-hydroxybutyl)-5-oxo-4,5-dihydro-1,3,4-thiadiazol-2-yl)-6-methylnicotinamide] belongs greater than 8.00; to `COc1ccc(Cl)c(F)c1-c1cc(C)ncc1C(=O)Nc1nn(CC2CC(O)C2)c(=O)s1` (stereo not drawn) [Example 17, 4-(3-Chloro-2-fluoro-6-methoxyphenyl)-N-(4-((3-hydroxycyclobutyl)methyl)-5-oxo-4,5-dihydro-1,3,4-thiadiazol-2-yl)-6-methylnicotinamide], greater than 8.00.
In the case of `COc1ccc(Cl)c(F)c1-c1cc(C)ncc1C(=O)Nc1nn(CCn2cccn2)c(=O)s1` [Example 18, N-(4-(2-(1H-pyrazol-1-yl)ethyl)-5-oxo-4,5-dihydro-1,3,4-thiadiazol-2-yl)-4-(3-chloro-2-fluoro-6-methoxyphenyl)-6-methylnicotinamide], the negative logarithm of the IC50 (pIC50) was greater than 8.00.
`COc1ccc(Cl)c(F)c1-c1cc(C)ncc1C(=O)Nc1nn(CC(C)O)c(=O)s1` (stereo not drawn) [Example 20, 4-(3-Chloro-2-fluoro-6-methoxyphenyl)-N-(4-(2-hydroxypropyl)-5-oxo-4,5-dihydro-1,3,4-thiadiazol-2-yl)-6-methylnicotinamide] had a pIC50 greater than 8.00.
With `CCC(O)Cn1nc(NC(=O)c2cnc(C)cc2-c2c(OC)ccc(Cl)c2F)sc1=O` (stereo not drawn) [Example 21, 4-(3-Chloro-2-fluoro-6-methoxyphenyl)-N-(4-(2-hydroxybutyl)-5-oxo-4,5-dihydro-1,3,4-thiadiazol-2-yl)-6-methylnicotinamide], the pIC50 is greater than 8.00.
Turning to `COc1ccc(Cl)c(F)c1-c1cnccc1C(=O)Nc1nn(CCCCO)c(=O)s1` [Example 22, 3-(3-Chloro-2-fluoro-6-methoxyphenyl)-N-(4-(4-hydroxybutyl)-5-oxo-4,5-dihydro-1,3,4-thiadiazol-2-yl)isonicotinamide], the pIC50 is greater than 8.00.
The compound `COc1ccccc1-n1cncc1C(=O)Nc1nn(CCCCO)c(=O)s1` [Example 23, N-(4-(4-Hydroxybutyl)-5-oxo-4,5-dihydro-1,3,4-thiadiazol-2-yl)-1-(2-methoxyphenyl)-1H-imidazole-5-carboxamide] had a pIC50 of less than 6.30.
On to `COc1ccc(Cl)cc1-c1cc(C)ncc1C(=O)Nc1nn(CCCCO)c(=O)s1` [Example 25, 4-(5-Chloro-2-methoxyphenyl)-N-(4-(4-hydroxybutyl)-5-oxo-4,5-dihydro-1,3,4-thiadiazol-2-yl)-6-methylnicotinamide], for which the pIC50 is greater than 8.00.
Consider `COc1ccc(C(F)(F)F)c(F)c1-c1cc(C)ncc1C(=O)Nc1nn(CCCCO)c(=O)s1` [Example 27, 4-(2-Fluoro-6-methoxy-3-(trifluoromethyl)phenyl)-N-(4-(4-hydroxybutyl)-5-oxo-4,5-dihydro-1,3,4-thiadiazol-2-yl)-6-methylnicotinamide], for which the pIC50 was greater than 8.00.
In turn, `COc1ccc(C)c(F)c1-c1cc(C)ncc1C(=O)Nc1nn(CCCCO)c(=O)s1` [Example 28, 4-(2-Fluoro-6-methoxy-3-methylphenyl)-N-(4-(4-hydroxybutyl)-5-oxo-4,5-dihydro-1,3,4-thiadiazol-2-yl)-6-methylnicotinamide] gave a pIC50 greater than 8.00.
